The METLIN SMRT retention time set (Domingo-Almenara et al. 2019)

Experiment: gradient 5% acetonitrile 3 min, to 50% in 2 min, to 85% in 15 min, held 3 min, 100 µL/min
Details: column: Zorbax Extend-C18 2.1 x 50 mm; eluents: water / acetonitrile, 0.1% formic acid
Method in brief: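 Pure standards were run in mixtures of ~100 molecules by HPLC coupled to a quadrupole time-of-flight mass spectrometer. The column was a Zorbax Extend-C18 (2.1 × 50 mm, 1.8 μm) at 100 μL/min, with water and acetonitrile each containing 0.1% formic acid, in positive and negative ionization mode. Dead and dwell volumes were 40 μL and 900 μL. Retention time was taken from computationally picked adduct peaks, each manually inspected, with data collected over 3 months.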

Compound | RP-LC retention time [s]
CCc1cccc(N2C(=O)CN(S(C)(=O)=O)CC2(C)C(=O)NCc2ccc(Cl)cc2)c1 (stereo not drawn) | 903
Cc1ccccc1-c1nc2cnccn2c1NCCC(=O)NCc1cccc(Cl)c1 | 717
COc1ccc(NC(=O)Cc2nnc(-c3ccc4ncccc4c3)o2)cc1Cl | 728
O=C(Cc1nc(-c2ccccc2)n[nH]1)Nc1cccc(Cl)c1 | 800
O=C(NCCn1cccn1)c1nn(CCOc2ccccc2)c2c1CNCC2 | 600
Cc1ccc(C(=O)N2C[C@@H]3C[C@H]2C[C@@H]3NS(C)(=O)=O)cc1F | 676
COc1cc(C)c(C)cc1S(=O)(=O)Nc1ccc2c(c1)N(S(C)(=O)=O)CCC2 | 844
COc1cccc(N2C(=O)CC(c3ccc(OC)c(OC)c3)CC2=O)c1 | 789
CC(C)c1ccccc1NC(=O)CN1CCN(c2ccc(Cl)cc2)C1=O | 906
COc1ccc(-c2cc3nn(CC(=O)Nc4ccc(C)c(C)c4)c(=O)n3c(C)n2)cc1 | 980
C=CCn1c(C)c(CC(=O)NC(C)CC)c(=O)n2nc(-c3ccc(C)cc3)nc12 (stereo not drawn) | 824
CCc1cc(-c2csc(S(=O)(=O)NCc3ccc(Br)cc3)c2)on1 | 1020
CC1CCN(S(=O)(=O)c2ccc(-c3nnc(C(=O)NCCCN4CCN(C)CC4)o3)cc2)CC1 | 623
O=C(CN1C(=O)C2CCCCN2c2ccc(S(=O)(=O)N3CCCC3)cc21)NCc1ccccn1 (stereo not drawn) | 654
CNC(=O)c1ccc2c(c1)CCN2C(=O)C(C)C | 644
Cn1nnc2cc(-c3noc(C4CCCO4)n3)ccc21 (stereo not drawn) | 730
CCNC(=O)c1sc(Nc2cccc(C)n2)nc1C | 657
COc1ccc(-c2nnc(-c3cc(S(N)(=O)=O)ccc3Cl)o2)cc1 | 792
Cc1ccc(C)c(NC(=O)N2CCCN(c3ccc(=O)n(-c4ccccc4)n3)CC2)c1 | 745
COC(=O)N1CCc2ccccc2C1C(=O)Nc1ccccc1C(F)(F)F (stereo not drawn) | 877
O=C(Nc1nnc(-c2cccs2)o1)c1cccc(N2C(=O)CCC2=O)c1 | 617
CCc1ccccc1NC(=O)Cn1nc2c(Oc3cc(C)cc(C)c3)nccn2c1=O | 946

Compound | RP-LC retention time [s]
COC(=O)c1cc(S(=O)(=O)N2CCCC2C(=O)Nc2ccccc2C(F)(F)F)cn1C (stereo not drawn) | 918
O=C(CN1C(=O)c2ccccc2C1=O)NCC1CCS(=O)(=O)C1 (stereo not drawn) | 586
CCc1cccc(NC(=O)C2CCc3nc(N4CCOCC4)ncc3C2)c1 (stereo not drawn) | 839
CNC(=O)C1CCN(C2=NS(=O)(=O)C(c3ccc(C(C)C)cc3)=C2C)CC1 | 777
O=C1N(c2cccc(F)c2)c2ncccc2S(=O)(=O)N1Cc1cccc(F)c1 | 1030
O=C(c1cnn2cccnc12)N1CCCC1c1ccccc1Cl (stereo not drawn) | 763
Cc1c(Cl)cccc1NC(=O)C(C)C1CCN(C(=O)Nc2ccccc2)CC1 (stereo not drawn) | 860
CC1(C)CS(=O)(=O)N(c2cccc(C(=O)NCCc3c[nH]c4ccccc34)c2)C1=O | 825
Cc1[nH]c(C)c(S(=O)(=O)N2CCC(C(=O)Nc3cc(F)ccc3F)CC2)c1C(=O)N1CCCC1 | 644
CCc1nccn1Cc1nc(-c2ccc(Cl)cc2)no1 | 670
COC(=O)c1c(N)n(CCc2ccccc2)c2nc3ccccc3nc12 | 711
COc1ccc(-c2ncc3c(n2)CCN(S(=O)(=O)c2cccc(Cl)c2C)C3)cc1 | 1180
CN(CC(=O)N1CCN(c2ccccc2)CC1)S(=O)(=O)c1ccc2c(c1)CCCC(=O)N2 | 737
O=C(CSc1nc(-c2ccccc2)c(-c2ccccc2)o1)NCCCO | 760
CCCCN(C)S(=O)(=O)c1cc(-c2nnc(C3CCCC3)o2)co1 | 1060
Cc1cccc(CN2CCN(C3CCN(C(=O)Nc4ccccc4)CC3)C2=O)c1 | 851
O=C(Nc1cc(Cl)ccc1F)c1cnc(-c2ccccc2)nc1-c1ccncc1 | 976
O=C(Nc1cccc(Cl)c1)C1CCCN(S(=O)(=O)c2c[nH]c(C(=O)N3CCCCCC3)c2)C1 (stereo not drawn) | 964
CCNS(=O)(=O)c1cc(-c2nc(C)cs2)n(C)c1C | 792
COc1cc(C(=O)N2CCC3(CC2)Nc2cc(F)ccc2-n2cccc23)cc(OC)c1OC | 868
Cc1noc([C@@H]2CC(F)(F)CN2C(=O)c2cc(C3CC3)[nH]n2)n1 | 726
C#Cc1cccc(Nc2ncnc3cc(OCCOC)c(OCCO)cc23)c1 | 663

Compound | RP-LC retention time [s]
CCC(C)Nc1nc2c(c(=O)n(C)c(=O)n2C)n1CC(O)COc1ccccc1 (stereo not drawn) | 865
Oc1ccc(-c2nc3ncccn3c2Nc2ccc3c(c2)OCCO3)cc1 | 610
COCC(=O)NC1CCN(c2ccccc2)C1=O (stereo not drawn) | 617
CCOC(=O)c1c(C)c(CCC(=O)NCCN2CCOCC2)n(C)c1C | 597
O=C(Cn1nc2n(c1=O)CCCCC2)Nc1ccc(Br)cc1 | 726
O=C(Nc1ccccc1Cl)N1CCC(N2CC(F)(F)C[C@H]2COCC2CC2)CC1 | 720
Cc1ccc(-c2nc3cnccn3c2NCCC(=O)NC2CC2)cc1 | 616
CCC(Oc1ccc(=O)n(-c2ccc(F)cc2)n1)C(=O)NCCc1ccco1 (stereo not drawn) | 759
O=C(Cn1cnc2nc(N3CCC(C(=O)NC4CC4)CC3)sc2c1=O)Nc1cc(F)ccc1F | 693
CSc1nc2ccc3nc(NC(=O)c4ccc([N+](=O)[O-])o4)sc3c2s1 | 930
CCCc1nc(N2CCN(c3ccccn3)CC2)ncc1C(=O)O | 606
O=c1c2cnn(-c3ccc(F)cc3)c2ncn1Cc1nc(-c2ccccc2)no1 | 1010
CN(C)c1ccc(/C=C2\C=Cc3ccccc32)cc1 | 1240
NC(=O)c1cnn(-c2cccc(F)c2)c1-n1cccc1 | 734
Cc1ccc(CNC(=O)N2CC=C(c3cn(C(C)C)c4ncccc34)CC2)cc1 | 958
COc1ccc(N2CCN(C(=O)C3CCN(S(=O)(=O)c4cn(C)c(C)n4)CC3)CC2)cc1 | 651
CCc1nc(-c2csc(S(=O)(=O)N3CCCC(C(=O)Nc4ccc(C(C)C)cc4)C3)c2)no1 (stereo not drawn) | 1210
O=C(Cn1cnc2c(sc3nc(-c4ccccc4)ccc32)c1=O)Nc1ccc(Cl)cc1F | 1110
CCc1ccc(CNC(=O)c2cn(C)nc2S(=O)(=O)N2CCSCC2)cc1 | 961
Cc1cccc(-c2nc3ccccn3c2NC(=O)Nc2ccccc2)c1 | 665
CC1=NS(=O)(=O)N(C)C=C1C(=O)OCc1nc(-c2cccc(C)c2)no1 | 1020
CCOc1ccc(-c2cn3ccn(-c4cccc(Cl)c4)c(=O)c3n2)cc1 | 899

Compound | RP-LC retention time [s]
COc1ccc2[nH]c(C(=O)N3CCN(C(=O)c4ccco4)CC3)cc2c1 | 706
Cc1ccc(S(=O)(=O)N2CCCC(CCC(=O)N3CCCCC3)C2)cc1 (stereo not drawn) | 962
Cc1ccc(F)c(NC(=O)c2sc(-c3cn(C)c4ncccc34)nc2C)c1 | 874
Cc1cc(C)cc(S(=O)(=O)N2CCC3(CC2)NCCN=C3NCc2cccc(F)c2)c1 | 772
COc1cc(OC)cc(-c2noc(-c3nnn(Cc4nc(-c5ccccc5OC)oc4C)c3C)n2)c1 | 1130
CCCOc1nc2ccccc2nc1N1CCCC(C(=O)Nc2ccc(Cl)cc2)C1 (stereo not drawn) | 1210
COc1cc(NC(=O)Cn2nc3nc(N4CCCC(C)C4)ccn3c2=O)cc(OC)c1 (stereo not drawn) | 770
COc1cccc(S(=O)(=O)N2CCC3(CC2)N(C2CCCC2)C(=O)CS3=O)c1 (stereo not drawn) | 780
CSc1ccc(NC(=O)N2CCN(c3ccc(C(F)(F)F)cn3)CC2)cc1 | 1010
COC(=O)c1cc2c(=O)n(-c3ccc(Cl)c(C(F)(F)F)c3)ccc2nc1C | 992
CC1CCc2c(sc(NC(=O)Cc3ccc(Cl)s3)c2C(N)=O)C1 (stereo not drawn) | 1000
O=C(CCCN1C(=O)C2C3C=CC(C3)C2C1=O)N1CCN(c2ccc(F)cc2)CC1 (stereo not drawn) | 800
CC(C)c1ccc(NC(=O)Cn2nc(N3CCCC3)c3ccccc3c2=O)cc1 | 1090
O=C(NC1CCCC1)C1CCCN(c2nccn3nc(-c4ccccc4Cl)cc23)C1 (stereo not drawn) | 915
CCc1noc(NC(C)=O)c1-c1ccc(OC)c(S(=O)(=O)Nc2ccc3c(c2)OCCO3)c1 | 736
O=C(c1ccc2[nH]ccc2c1)N1CCN(C(=O)c2nnn3c2COC(c2ccccc2)C3)CC1 (stereo not drawn) | 793
CCc1noc(NC(C)=O)c1-c1ccc(OC)c(S(=O)(=O)Nc2ccc(C)c(C)c2)c1 | 846
C=CCn1c(SCCC(=O)O)nnc1-c1cccs1 | 616
COc1ccc(N2CCN(c3cc(SCC(=O)NCCC4=CCCCC4)ncn3)CC2)cc1 | 1080
Cc1ccc(-c2coc3cc4oc(=O)c(CC(=O)N5CCC(C(N)=O)CC5)c(C)c4cc23)cc1 | 813
O=C(Cc1ccc(F)cc1)N1CCN(C(=O)c2cc(-c3cccnc3)n[nH]2)CC1 | 606
Cc1noc(-c2nc(Cc3ccc(F)cc3)no2)n1 | 953
